Data: publication PMC12040169 (PLOS Biology, 2025)

Test: in vitro
Details: human, hela cells, % viability

Going from `O=C(NCc1ccccn1)c1cc(-c2ccc(Cl)cc2)[nH]n1` [CBK116549] to `O=C(NCc1ccccn1)c1cc(-c2ccc(Cl)cc2)on1` [CBK116558], the viability at 28.5 h, 10 µM falls from 99.5% to 83.8%.

Going from `CN1CCN(NC(=O)c2cc(-c3ccc(Cl)cc3)[nH]n2)CC1` [CBK116553] to `CN(C)CCCNC(=O)c1cc(-c2ccc(Cl)cc2)[nH]n1` [CBK116564T], the viability at 28.5 h, 10 µM rises from 90.8% to 98.5%.

Compared with `O=C(NCc1ccncc1)c1cc(-c2ccc(Cl)cc2)on1` [CBK116559], `CN(C)CCNC(=O)c1cc(-c2ccc(Cl)cc2)on1` [CBK116711T] is higher in viability at 28.5 h, 10 µM: 85.7% for the first, 89.7% for the second.

Compared with `CN(C)CC(C)(C)CNC(=O)c1cc(-c2ccc(Cl)cc2)on1` [CBK116561], `COc1cc(Nc2cncc(-c3ccc(O)cc3)n2)c(Cl)cc1C(=O)NCCCN(C)C` [CBK122651] is lower in viability at 28.5 h, 10 µM: 101% for the first, 81.1% for the second.

Compared with `FC(F)(F)c1ccnc(OCc2ccc(Cl)c(Cl)c2)c1` [CBK116623], `FC(F)(F)c1ccnc(OCCc2c[nH]c3ccccc23)n1` [CBK116625] is lower in viability at 28.5 h, 10 µM: 89.2% for the first, 80.2% for the second.

First: COc1cc2cc3c(N)c(C(=O)N4CCCc5ccccc54)sc3nc2cc1OC [CBK117298]
Second: COc1cc2cc3c(N)c(C(=O)NCc4cccs4)sc3nc2cc1OC [CBK120215]
The viability at 28.5 h, 10 µM of the first is higher: 102% for the first, 92% for the second.

Compared with `O=C(Nc1ccccc1Cl)N1CCN(c2ccc(F)cc2)CC1` [CBK117849], `O=C(c1ccc(F)cc1)N1C2CCC1CC(O)(c1ccccc1F)C2` (stereo not shown) [CBK121719] is higher in viability at 28.5 h, 10 µM: 95.7% for the first, 102% for the second.

Going from `COc1c(Br)cc(Br)cc1/C=C1/SC(=N)NC1=O` [CBK119298] to `COc1ccc2[nH]cc(CC(=O)Nc3cc(C)nc4ccccc34)c2c1` [CBK122732], the viability at 28.5 h, 10 µM falls from 94.4% to 88.8%.

Compared with `O=C(Nc1c(F)cccc1F)N(Cc1ccc2ccccc2c1)CC1CCNCC1` [CBK119480], `O=c1[nH]n(-c2ccccc2)c(=O)n1Cc1ccccc1F` [CBK122770] is lower in viability at 28.5 h, 10 µM: 100% for the first, 95% for the second.

Going from `Fc1ccc(CN2C3CCCC2CC(NC(=S)NC2CCCCC2)C3)cc1` (stereo not shown) [CBK121172] to `CCOc1ccc(C(=O)NC2CC3CCC(C2)N3Cc2ccc(OC)cc2)cc1` (stereo not shown) [CBK121398], the viability at 28.5 h, 10 µM rises from 90% to 109%.

Going from `Cc1cccc(C)c1NC(=O)Cn1nnc(-c2ccc(CN3CCC(C)CC3)cc2)n1` [CBK121194] to `COc1cc(C(=O)NCCN2CCCC2)ccc1Nc1cncc(-c2ccc(O)cc2)n1` [CBK122661], the viability at 28.5 h, 10 µM rises from 87.2% to 96%.

Compared with `CCCCC1CCC(C(=O)O)CC1` (stereo not shown) [CBK122493], `CCCCSc1sc(C(=O)O)c(-c2ccc(Cl)cc2)c1C#N` [CBK122551] is higher in viability at 28.5 h, 10 µM: 82.4% for the first, 94.1% for the second.

First: Nc1ncc(-c2ccc(OC(F)(F)F)cc2)nc1-c1ccc(O)cc1 [CBK122506]
Second: Oc1ccc(-c2cncc(-c3ccc(F)cc3)n2)cc1 [CBK123794]
The viability at 28.5 h, 10 µM of the first is higher: 95.8% for the first, 93.7% for the second.

Going from `Cc1ccc(S(=O)(=O)N2CCOCC2)cc1-c1cnc(N)c(-c2ccc(O)cc2)n1` [CBK122519] to `Cc1ccc(S(=O)(=O)N2CCOCC2)cc1-c1cncc(-c2ccc(O)cc2)n1` [CBK123789], the viability at 28.5 h, 10 µM rises from 98.7% to 103%.

Compared with `CC(C)(C)OC(=O)N1CCC(Sc2ccc(-c3ccco3)cc2)CC1` [CBK122552], `O=C(c1ccc(-c2cncc(-c3ccc(O)cc3)n2)cc1Cl)N1CCOCC1` [CBK123790] is higher in viability at 28.5 h, 10 µM: 85.6% for the first, 94% for the second.

First: CCN(CC)CCNC(=O)c1ccc(Nc2cncc(-c3ccc(O)cc3)n2)c(OC)c1 [CBK122659]
Second: CN(C)CCCNC(=O)c1cccc(Nc2cncc(-c3ccc(O)cc3)n2)c1 [CBK122669]
The viability at 28.5 h, 10 µM of the first is lower: 82.2% for the first, 87.7% for the second.

Going from `O=C(NCCN1CCCC1)c1ccc(Nc2cncc(-c3ccc(O)cc3)n2)c(Cl)c1` [CBK122666] to `COc1ccc2[nH]cc(CCNC(=O)c3cncnc3)c2c1` [CBK122720], the viability at 28.5 h, 10 µM rises from 85.4% to 87.1%.

First: CCC1(CC)OC(N[C@@H](C)c2ccccc2C(F)(F)F)=NC1=O [CBK122691]
Second: Cc1cc(NCc2ccc(C(C)C)cc2)c2ccccc2n1 [CBK122786]
The viability at 28.5 h, 10 µM of the first is lower: 91.2% for the first, 91.7% for the second.

Going from `CCN1CC2(CCN(CCOc3ccccc3)CC2)c2ccccc21` [CBK122705] to `COc1cccc(Cn2c(=O)[nH]n(-c3ccccc3)c2=O)c1` [CBK122771], the viability at 28.5 h, 10 µM falls from 100% to 97.7%.

Going from `Cc1cc(NC(=O)c2cncnc2)c2ccccc2n1` [CBK122734] to `O=C(Nc1ccc2cccc(O)c2n1)c1cc[nH]c1` [CBK122743], the viability at 28.5 h, 10 µM falls from 103% to 94.9%.

Compared with `O=C1CN(c2cccc(C(F)(F)F)c2)C(=O)N1c1ccc(Cl)cc1` [CBK122769], `C=CCn1oc(=O)n(-c2ccc(OC)cc2)c1=O` [CBK122773] is lower in viability at 28.5 h, 10 µM: 108% for the first, 89.4% for the second.

Same assay, conditions: human, hela cells, % viability, bulk resorufin, single well

First: COc1ccc(CC(=O)Nc2cccc(-c3ccc4c(c3)COC3(CCNCC3)O4)c2)cc1F [CBK115913]
Second: CC(=O)Nc1ccc(-c2ccc3c(c2)COC2(CCN(C(=O)Cc4ccc(F)cc4F)CC2)O3)cc1 [CBK122474]
The viability at 28.5 h, 10 µM of the first is lower: 86.5% for the first, 102% for the second.

First: COc1cc(-c2ccc3c(c2)COC2(CCN(C(=O)OC(C)(C)C)CC2)O3)ccc1O [CBK116310]
Second: N#Cc1cccc(-c2ccc3c(c2)COC2(CCN(C(=O)Cc4c[nH]c5ccccc45)CC2)O3)c1 [CBK116346]
The viability at 28.5 h, 10 µM of the first is higher: 116% for the first, 99.1% for the second.
